Legend:
[1] = system: 1-LN cells; test: MMP-9 activity in serum-free culture medium of 1-LN cells (quantitative gelatin zymography); assay type: cell-based, human; conditions: for Active MMP-9: 24 h; for MMP-9 EXPRESSION Secretion: Yes/No
Procedure: Gelatin Zymography—Protein samples were electrophoresed on gelatin-containing 0.75 mm thick 10% polyacrylamide gels in the presence of SDS under nonreducing conditions. After completion of the electrophoretic run, the gels were incubated with two changes of 2.5% Triton X-100 for 1 h, followed by incubation for 18 h at 37° C. in 0.1 M glycine-NaOH, pH 8.3, containing 1 mM CaCl2, and […], before staining with Coomassie Brilliant Blue R-250 to visualize the lysis bands.
MMP-9 Activity in Solution—MMP-9 activity was measured in tissue culture supernatants by quantitative zymography using as a standard MMP-9 purified by affinity chromatography on gelatin-Sepharose from 1-LN cell conditioned medium (10 liters). Conditioned medium (50 μl), from 1-LN cell monolayers in 48 well culture plates (1.7×10^6 cells/well) incubated with Pg 2 glycoforms and/or inhibitors of Pg binding or activation, were electrophoresed on gelatin-containing gels and the degree of lysis was quantified using a Gelman ACD-15 Automatic Computing Densitometer (Gelman Instrument Company, Ann Arbor, Mich.). Values were determined by integrating the density of the selected bands and expressed in units×mm^2. Each gel was scanned three times and the average value of the integrated density of the bands was used to determine levels of MMP-9 from calibration curves constructed with purified active MMP-9 electrophoresed under the same conditions. The statistical analysis of the data was performed on an IBM 433 DX/S computer using the program SYSTAT® for Windows 95. The statistical significance of differences between means was evaluated by Student's t-test. MMP-9 was positively identified in conditioned medium by electrophoretic separation in 10% SDS-polyacrylamide gels (SDS-PAGE), electroblot of the electrophoresed proteins to nitrocellulose membranes and reaction with an anti-MMP-9 mAb (1 μg/ml) followed by reaction with a secondary alkaline phosphatase conjugated anti-mouse IgG. Detection was performed by reaction with the alkaline phosphatase substrate 5-bromo-4-chloro-3-indolyl phosphate in the presence of nitroblue tetrazolium (1 mM each) in 10 mM Tris-HCl, pH 8.5.
Effect of Pg on the Expression of MMP-9 by 1-LN Cells—Cells were seeded into 48-well culture plates and grown in RPMI 1640 containing 10% fetal bovine serum. Confluent monolayers were then incubated for 24 h with quiescent culture medium containing RPMI 1640 and 0.5% fetal bovine serum. Each individual Pg 2 glycoform (0.1 μM) was added in triplicate to cell monolayers in 300 μl of serum-free RPMI 1640 and incubated for 24 h at 37° C. Culture medium was collected to measure secretion of MMP-9 as described under Experimental Procedures. Prior to analyses of the MMP-9 secreted into the medium by 1-LN cells in the presence of individual Pg 2 glycoforms, we purified MMP-9 from conditioned medium (5 liters) by the technique of Masure et al.. […] A similar analysis of the Mr˜95,000 protein yielded the sequence APRQRQ, corresponding to the amino-terminal sequence of proMMP-9. […] We then proceeded to analyze the MMP-9 secreted into the medium by 1-LN cells incubated with each individual Pg 2 glycoform in serum-free culture medium, using the purified MMP-9 as a standard for quantification by gelatin zymography. These analyses (FIG. 7A) show a major band of active protein with a Mr˜85,000. […] Samples of these conditioned media were also subjected to SDS-PAGE under reducing conditions, electroblotted to nitrocellulose membranes and then reacted with an anti-MMP-9 mAb (FIG. 7B). […] A 4-fold decrease in the production of MMP-9 by cells co-incubated with anti-DPP IV mAb 236.3 and Pg 2ε (p<0.001) (Table II) is clearly observed in the conditioned medium (Lane 6 on FIGS. 8A and 8B, respectively).

[2] = system: 1-LN cells; test: MMP-9 mRNA levels in 1-LN cells by RT-PCR; assay type: cell-based, human; conditions: for MMP-9 EXPRESSION mRNA: Yes/No; for Relative MMP-9 mRNA levels (ratio MMP-9 mRNA/GAPDH mRNA): glycoform 0.1 μM, 24 h, versus serum-free medium alone, in words
Procedure: RNA Isolation—To determine changes in MMP-9 mRNA induced by Pg, 1-LN cells were grown in 48 well culture plates (1.7×10^6 cells/well) and incubated with each individual Pg 2 glycoform for 24 h at 37° C. Cell monolayers were then rinsed twice in serum-free RPMI 1640 and total RNA extracted by a single-step method, using RNeach Mini kit (Qiagen, Chatsworth, Calif.), according to the manufacturer's instructions.
Measurement of MMP-9 mRNA Levels by Reverse Transcription-PCR (RT-PCR)—Total RNA was reverse transcribed with 1 μg of RNA in a 20 μl reaction mixture, using M-MLV reverse transcriptase (200 U) and oligo d(T) as primer for 1 h at 42° C. The resulting cDNA (5 μl) was used as a template and a […] segment of the MMP-9 cDNA was amplified, using a 24-mer upstream primer (5′-[…]-3′), identical to positions 2079-2102 and a 29-mer downstream primer (5′-[…]-3′) complimentary to positions 2270-2298 of the human MMP-9 mRNA [45]. A 600-bp segment of the glyceraldehyde phosphate dehydrogenase (GAPDH, constitutive internal control) cDNA was co-amplified, using a 24-mer upstream primer (5′-[…]), identical to positions 212-235 and a 24-mer downstream primer (5′-[…]-3′), complimentary to positions 786-809 of the human GAPDH mRNA [46]. Amplification was carried out in a Techne Thermal Cycler PHC-3 for 28 cycles (one cycle=94° C. for 45 s, 60° C. for 45 s, and 72° C. for 45 s). PCR products were analyzed on a 1.2% agarose-ethidium bromide gel. The gels were photographed and the intensity of the individual MMP-9 and GAPDH mRNA bands measured by laser densitometric scanning, using a Molecular Dynamics Personal Densitometer. Changes in MMP-9 mRNA levels were expressed as a relative ratio of MMP-9 mRNA/GAPDH mRNA band intensities.

[3] = SFM + 6-AHA (100 nM) + glycoform 0.1 μM
[4] = SFM + L-lac (100 mM) + glycoform 0.1 μM
[5] = SFM + glycoform 0.1 μM, no additive, 37° C.
[6] = SFM + DPP IV-Ab (50 μg/ml) + glycoform 0.1 μM

| Molecule | Active MMP-9 ([1]; SFM + additive alone, no Pg 2 glycoform) [ng/mL] | Decrease in the production of MMP-9 ([1]; cells co-incubated with Pg 2ε, L-lactose 100 mM, anti-DPP IV mAb) [fold] | Active MMP-9 [1, 3] [ng/mL] | Active MMP-9 [1, 4] [ng/mL] | Active MMP-9 [1, 5] [ng/mL] | MMP-9 EXPRESSION Secretion [1] | MMP-9 EXPRESSION mRNA [2] | Relative MMP-9 mRNA levels (ratio MMP-9 mRNA/GAPDH mRNA) [2] | Active MMP-9 [1, 6] [ng/mL] | Stimulation of active MMP-9 secreted ([1]; compared to cells with other Pg 2 glycoforms or culture medium, p<0.001) [fold] |
| --- | --- | --- | --- | --- | --- | --- | --- | --- | --- | --- |
| OC[C@@H]1O[C@H](O[C@@H]2[C@@H](O)[C@H](O)C(O)O[C@H]2CO)[C@@H](O)[C@H](O)[C@@H]1O (stereo partly drawn) [L-lactose, reference compound] | 0.15 ± 0.03 | 12 |  |  |  |  |  |  |  |  |
| Pg 2α: glycoform of human plasminogen type 2 purified from plasma; 1.3 mol sialic acid/mol Pg |  |  | 0.59 ± 0.17 | 0.11 ± 0.02 | 0.59 ± 0.16 | No | No | did not show a significant change |  |  |
| Pg 2β: glycoform of human plasminogen type 2 purified from plasma; 2.2 mol sialic acid/mol Pg |  |  | 0.5 ± 0.13 | 0.17 ± 0.04 | 0.59 ± 0.13 | No | No | did not show a significant change |  |  |
| Pg 2γ: glycoform of human plasminogen type 2 purified from plasma; 2.95 mol sialic acid/mol Pg |  |  | 0.63 ± 0.21 | 0.15 ± 0.03 | 0.60 ± 0.17 | No | No | did not show a significant change | 0.58 ± 0.12 |  |
| Pg 2δ: glycoform of human plasminogen type 2 purified from plasma; 5.77 mol sialic acid/mol Pg |  |  | 0.57 ± 0.14 | 0.18 ± 0.04 | 0.62 ± 0.18 | No | No | did not show a significant change | 0.56 ± 0.11 |  |
| Pg 2ε: glycoform of human plasminogen type 2 purified from plasma; 5.34 mol sialic acid/mol Pg |  |  | 1.82 ± 0.23 | 0.14 ± 0.05 | 1.80 ± 0.21 | Yes | Yes | significant increase | 0.49 ± 0.14 | 3 |
| Pg 2φ: glycoform of human plasminogen type 2 purified from plasma; 13.65 mol sialic acid/mol Pg |  |  | 0.57 ± 0.11 | 0.11 ± 0.02 | 0.63 ± 0.14 |  |  |  |  |  |
